“Also recorded” adds a separate entry of the source.

The target in one assay is P-Selectin (Mus musculus, UniProt Q01102). In words: P-Selectin binding to 4T1 cells by flow cytometry. The settings on record: for Inhibition of P-Selectin binding to 4T1 cells: P-Selectin pre-treated with chondroitin sulfate, various concentrations; for P-Selectin binding to 4T1 cells after treatment of the cells: cells pre-treated with the agent. (In general: In flow cytometry, cells or beads pass a laser one at a time.)

Assay [1] has as its system 4T1 cells. The assay is described as follows: Lung colonies in mice with 4T1 fat pad tumors injected daily with CS. In kind it is in vivo, mouse. To be noted: 30 days after transplant. On the procedure:
FIG. 20. Chondroitin sulfate inhibits metastasis. Mice were injected with 4T1 cells into fact pads. After tumors were palpable (3-4 days after transplant) they were daily injected with CS intraperitoneally (ip) or subcutaneously (sc). Micer were sacrificed 30 days after transplant and lung colonies were quantified. Saline injection was used as a control. Comparisons were made between groups treated with CS and the saline group as control. NS, not significant. Average and SD with three animals per group is shown.
Mice were injected with 4T1 cells into fat pads. After tumors were palpable (3-4 days after transplant) the mice were daily injected with CS intraperitoneally (ip) or subcutaneously (sc). The mice were sacrificed 30 days after transplant and lung colonies were quantified. CS was dissolved in saline for injection. Saline control injection by either sc or ip routes produced similar results.

The subject of another assay is tumor cells. The settings on record: clinically relevant dose; reference 8; cited from earlier work.
The subject of assay [2] is 4T1 cells. The assay is described as follows: Binding of thrombin-treated Calcein-AM-labeled mouse platelets to 4T1 cells. It counts as cell-based. The settings on record: 100 U/ml final concentration. The procedure:
To examine if heparin can block the interaction of mouse platelets with tumor cells, 4T1 cells were mixed with Calcein-AM-labeled mouse platelets in the presence of mouse thrombin with or without heparin. Mouse thrombin was added to stimulate relocation of P-Selectin to platelet surface and tumor cells were then analyzed by flow cytometry for Calcein-AM staining, indicating platelet attachment. […] Blood was collected into sodium citrate (0.38% w/v) from naive mice and platelets were isolated from plasma by centrifugation. Platelet were washed and labeled with 5 μM final Calcein-AM (Molecular Probes, Eugene, Oreg., USA) for 15 minutes at 37° C. Platelets were then washed and incubated with 1 U/ml thrombin (Haematologic Technologies Inc, Essex Junction, Vt.) at 37° C. for 10 minutes. Heparin (Baxter Healthcare Corp., Deerfield, Ill., 100 U/ml final concentration) was then added to the mixture of platelets and thrombin, and incubated with 4T1 cells in flow cytometry tubes, for 15 minutes at room temperature, then acquired and analyzed by flow cytometry.

Assay [3] deals with 4T1 cells. The assay is described as follows: Spontaneous lung metastasis of 4T1 tumors in BALB/c mice after heparin, clonogenic assay. In kind it is in vivo, mouse. To be noted: 100 units 30 minutes before tumor cell inoculation; 26 days after inoculation. On the procedure: BALB/c female mice (6-8 weeks old) were purchased from Harlan (Indianapolis, Ind.). Tumors were established as described earlier (9). Briefly, each mouse was inoculated subcutaneously in the abdominal mammary gland with 5×10^4 4 T1 cells. To establish a functional correlation between P-Selectin ligand expression of 4T1 cells and their metastatic ability in vivo, we injected mice with 100 units of heparin 30 minutes before tumor cell inoculation. Mice were sacrificed 26 days after tumor inoculation, lungs were harvested and metastatic cells were detected by clonogenic assay. […] All mice that were injected with PBS as control developed lung metastasis.

A further assay deals with uPA. In words: Real-time PCR gene expression in MCF-7 cells after 5azadC: uPA. In kind it is cell-based, human. The settings on record: positive control gene. On the procedure:
(§1) Real-time PCR was conducted to quantify mRNAs of five genes in four different human breast cancer tumor lines. The assayed genes were Syndecan-1 (SDC-1), Neuropilin-1 (NRP-1), Syndecan-4 (SDC-4), MCSP, and estrogen receptor 1. The tumor lines were MCF7, MDA-MD-468 (MDA-468), MDA-MB-231 (MDA-231), and MDA-MET. MCF-7 and MDA-468 are less aggressive. MDA-231 is an aggressive cell line, and MDA-MET is a subline of MDA-231 that metastasizes to bone. The quantity of each mRNA was assayed in comparison to 18s RNA. NRP-1, SDC-4 and MCSP expression was higher in the two more aggressive cell lines than in either of the two less aggressive cell lines. […] MCF-7 and MDA-468 are epithelial-like, while both MDA-231 and MDA-MET cells are mesenchymal type. Thus, high expression of NRP-1, MCSP and SDC-4 may be related to an epithelial to mesenchymal transition, which is a phenotypic event associated with more metastasis and aggressive growth.
(§2) In this experiment, gene expression levels were assayed by real-time PCR and comparison to 18S RNA levels. The dependence of gene expression on methylation levels was tested by treating tumor cells with varying levels of 5-aza-2′-deoxycytidine (5azadC), which is a demethylating agent (Table 6). Methylation of CpG islands is a well-known mechanism of gene control. Methylation decreases expression of genes whose promoters are methylated. The expression of NRP-1, CHST11, and MCPG each increased with increasing 5azadC concentration, which indicates they are under methylation control, with increased methylation repressing expression of the genes. Urokinase (uPA) was used as a positive control.
(In general: Quantitative PCR measures a nucleic acid by following its amplification.)

Another assay relates to Synd-4. In words: Real-time PCR gene expression in MCF-7 cells after 5azadC: Synd-4. It counts as cell-based, human. The settings on record: for Relative expression level of Synd-4 compared with no 5azadC: MCF-7 cells. The procedure:
as §1, §2

The next assay concerns MCPG. The assay is described as follows: Real-time PCR gene expression in MCF-7 cells after 5azadC: MCPG. In kind it is cell-based, human. The settings on record: for Relative expression level of MCPG compared with no 5azadC: MCF-7 cells. The procedure:
as §1, §2

Another assay deals with CHST11. In words: Real-time PCR gene expression in MCF-7 cells after 5azadC: CHST11. To be noted: for Relative expression level of CHST11 compared with no 5azadC: MCF-7 cells. In kind it is cell-based, human. On the procedure: as §1, §2
For another assay, the system named is NRP-1. The assay is described as follows: Real-time PCR gene expression in MCF-7 cells after 5azadC: NRP-1. It counts as cell-based, human. To be noted: for Relative expression level of NRP-1 compared with no 5azadC: MCF-7 cells. The procedure: as §1, §2

Chain of P-Selectin (Q01102 with tags, fused parts or gaps limits assumed): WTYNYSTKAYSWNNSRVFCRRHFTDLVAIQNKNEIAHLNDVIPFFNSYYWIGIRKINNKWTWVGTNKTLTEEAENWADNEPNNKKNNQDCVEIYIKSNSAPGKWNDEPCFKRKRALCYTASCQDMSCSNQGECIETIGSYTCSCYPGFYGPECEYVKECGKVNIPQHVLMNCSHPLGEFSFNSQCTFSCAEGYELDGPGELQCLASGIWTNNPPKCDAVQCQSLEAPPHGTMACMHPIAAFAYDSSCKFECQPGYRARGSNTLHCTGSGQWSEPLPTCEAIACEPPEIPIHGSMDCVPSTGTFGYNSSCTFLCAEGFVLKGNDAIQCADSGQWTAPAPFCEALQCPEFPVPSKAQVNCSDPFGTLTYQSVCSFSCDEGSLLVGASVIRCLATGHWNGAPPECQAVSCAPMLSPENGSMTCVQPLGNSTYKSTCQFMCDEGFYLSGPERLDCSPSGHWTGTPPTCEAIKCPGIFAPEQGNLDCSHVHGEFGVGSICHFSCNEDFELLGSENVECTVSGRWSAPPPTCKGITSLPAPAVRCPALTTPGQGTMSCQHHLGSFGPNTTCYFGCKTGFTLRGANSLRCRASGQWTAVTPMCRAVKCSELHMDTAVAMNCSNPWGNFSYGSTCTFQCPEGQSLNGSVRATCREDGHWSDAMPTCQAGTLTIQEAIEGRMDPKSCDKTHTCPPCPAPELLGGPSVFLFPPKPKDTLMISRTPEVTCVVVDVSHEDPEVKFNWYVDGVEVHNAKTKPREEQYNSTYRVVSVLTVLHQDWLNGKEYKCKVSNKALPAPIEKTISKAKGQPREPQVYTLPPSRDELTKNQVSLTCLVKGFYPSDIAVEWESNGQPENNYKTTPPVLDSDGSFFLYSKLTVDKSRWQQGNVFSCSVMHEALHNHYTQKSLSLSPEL
Protocol for P-Selectin: Unless specified otherwise, flow cytometry was conducted as follows. Acquisition and analysis of data was performed on an EPICS®™ XL™.flow cytometer (Beckman Coulter, Inc., Fullerton, Calif.). Cells were passed to new flasks 24 hours before measuring lectin binding. The subconfluent monolayer of cells was detached with Cellstripper (Mediatech, Inc. Herndon, Va.) and washed with Dulbecco's phosphate buffered saline with Ca++ and Mg++ (Mediatech, Inc. Herndon, Va.). Cells were transferred to FACS buffer (Dulbecco's Phosphate Buffered Saline, 1% BSA and 0.1% Sodium Azide), counted and diluted to ˜1-2×10^6/ml. Monoclonal antibodies were added to a final concentration of 10 μg/ml. Cells were incubated on ice for 30 minutes, washed twice with FACS buffer, before the addition of FITC-conjugated streptavidin (2 μg/ml) for lectin analysis or FITC-conjugated goat anti-mouse immunoglobulin for monoclonal analysis. Cells were then washed and fixed with paraformaldehyde, before analysis by flow cytometry.
Recombinant E- and P-Selectin/Fc (human IgG) were purchased from R&D systems, Minneapolis, Minn. These recombinant molecules and FITC-conjugated anti-human IgG were used for binding analyses in flow cytometry assays. Human and murine recombinant selectins were used for human and murine cells, respectively.
Binding of recombinant P-Selectin to cells was examined after treatment with heparinase and chondroitinase ABC or in the presence of various concentrations of heparin and chondroitin sulfate A, B, C, and E (Seikagaku America, Falmouth, Mass.).

chondroitin sulfate C [CS C]: the “Inhibition of P-Selectin binding to 4T1 cells” value on P-Selectin was “minimal inhibitory effects”.
chondroitin sulfate [CS]: the “Metastasis (lung colonies) compared to saline control” value is given as “decreased metastasis” with 4T1 cells [1] (1 mg subcutaneously daily), “decreased metastasis” with 4T1 cells [1] (10 mg subcutaneously daily) and “did not appear to” in the assay on 4T1 cells [1] (intraperitoneally daily).
Consider Heparin, for which the “Lung metastasis in experimental models” value with tumor cells is given as “inhibited lung metastasis”. The “Binding of thrombin treated platelets to tumor cells” value in the assay with 4T1 cells [2] is reported as “reduced”. Moreover, the “Effective dose for inhibition of P-Selectin binding, as concentration” value on P-Selectin (corresponds to 120 units) amounted to 0.7 mg/mL. Besides, the “Inhibition of P-Selectin binding to cells” value on P-Selectin (sLex-Neg 4T1 cell variant, recombinant P-Selectin pre-incubated with 0.7-120 Units heparin) was “efficiently inhibited P-Selectin binding to cells in a dose dependent manner”. Besides, the “Effective dose for inhibition of P-Selectin binding” value at P-Selectin (sLex-Neg 4T1 cells, FIG. 10) is reported as 120 units. Besides, in the assay on 4T1 cells [3], the “Mice with complete absence of metastases in lung” value is “six mice out of total of seven” and the “Number of mice positive for established lung metastases, Positive (total)” value is listed as “*1 (7)”.
For the molecule dermatan sulfate [CS B], on P-Selectin (0.005-5.0 mg/ml), the “Concentration dependence of inhibition of P-Selectin binding” value was “inhibitory effects only at higher concentrations”. The “Inhibition of P-Selectin binding to 4T1 cells” value at P-Selectin was “inhibited P-Selectin binding”.
In the case of `[Na+].[O-][Cl+2]([O-])[O-]` [sodium chlorate], the “P-Selectin binding to 4T1 cells after treatment of the cells” value on P-Selectin is listed as “elimination of P-Selectin binding in a majority of the cells”.
On to `O=C(O)CN(CCN(CC(=O)O)CC(=O)O)CC(=O)O` [EDTA], for which the “P-Selectin reactivity with 4T1 cells in presence of EDTA” value is given as “inhibited P-Selectin reactivity only at high concentrations” on P-Selectin (high concentrations (20 and 40 mM)); “not blocked” at P-Selectin (low concentration (10 mM)).
“Neuraminidase: Neuraminidase (Vibrio cholerae) from Sigma, used at 50 mU/ml”: the “P-Selectin binding to 4T1 cells after treatment of the cells” value with P-Selectin is listed as “did not change”.
On to chondroitin sulfate A [CS A], for which, at P-Selectin, the “Inhibition of P-Selectin binding to 4T1 cells” value is “minimal inhibitory effects”.
On to `Nc1ncn([C@H]2C[C@H](O)[C@@H](CO)O2)c(=O)n1` [5azadC, 5-aza-2′-deoxycytidine], for which the “Relative expression level of uPA compared with no 5azadC” value in the assay with uPA (0.5 μM) is reported as 2.2; in the assay with uPA (1 μM), 2.9; in the assay with uPA (5 μM) it was 3.2; with uPA (20 μM) it was 3.9. In addition, the “Relative expression level of Synd-4 compared with no 5azadC” value in the assay on Synd-4 (0.5 μM) is 0.7; in the assay on Synd-4 (1 μM), 0.5; in the assay with Synd-4 (5 μM), 0.8; in the assay with Synd-4 (20 μM), 0.6. Also, the “Syndecan-4 expression with 5azadC treatment” value with Synd-4 (trend over 0.5-20 μM) is “decreased or remained approximately constant”. Besides, the “Relative expression level of MCPG compared with no 5azadC” value came to 1.3 with MCPG (0.5 μM), 1.4 in the assay on MCPG (1 μM), 1.7 in the assay with MCPG (5 μM) and 2.1 in the assay with MCPG (20 μM). Further, in the assay with MCPG (trend over 0.5-20 μM), the “Expression of MCPG with increasing 5azadC concentration” value is “increased”. Moreover, the “Relative expression level of CHST11 compared with no 5azadC” value in the assay with CHST11 (0.5 μM) amounted to 1.34; in the assay with CHST11 (1 μM), 1.68; in the assay with CHST11 (5 μM) it was 3.7; in the assay with CHST11 (20 μM), 4.00. Also, in the assay on CHST11 (trend over 0.5-20 μM), the “Expression of CHST11 with increasing 5azadC concentration” value is “increased”. Besides, the “Relative expression level of NRP-1 compared with no 5azadC” value in the assay on NRP-1 (0.5 μM) turned out to be 1.04; in the assay on NRP-1 (1 μM), 1.50; in the assay with NRP-1 (5 μM), 1.72; with NRP-1 (20 μM), 1.71. In addition, the “Expression of NRP-1 with increasing 5azadC concentration” value with NRP-1 (trend over 0.5-20 μM) is recorded as “increased”.
chondroitin sulfate E [CS E]: the “Concentration giving complete inhibition of P-Selectin binding” value on P-Selectin (4T1 cells) was 0.5 mg/mL. For the same molecule, at P-Selectin, the “Inhibition of P-Selectin binding to 4T1 cells” value was “inhibited P-Selectin binding; also recorded: effectively inhibit”.
